The text below walks through data of patent publication US11236072B2, “N-[(pyrimidinylamino)propanyl]-,n-[pyridylamino)propanyl]- and n-[(pyrazinylaminol)propanyl]arylcarboxamides” (Boehringer Ingelheim International GmbH, priority 2017, dated 2022).

Structures are written as SMILES. Read-outs that look alike come from different tables or passages of the source.

Series [1] addresses T1, OX2R (Homo sapiens, UniProt O43614).
T1 sequence (O43614 1-444): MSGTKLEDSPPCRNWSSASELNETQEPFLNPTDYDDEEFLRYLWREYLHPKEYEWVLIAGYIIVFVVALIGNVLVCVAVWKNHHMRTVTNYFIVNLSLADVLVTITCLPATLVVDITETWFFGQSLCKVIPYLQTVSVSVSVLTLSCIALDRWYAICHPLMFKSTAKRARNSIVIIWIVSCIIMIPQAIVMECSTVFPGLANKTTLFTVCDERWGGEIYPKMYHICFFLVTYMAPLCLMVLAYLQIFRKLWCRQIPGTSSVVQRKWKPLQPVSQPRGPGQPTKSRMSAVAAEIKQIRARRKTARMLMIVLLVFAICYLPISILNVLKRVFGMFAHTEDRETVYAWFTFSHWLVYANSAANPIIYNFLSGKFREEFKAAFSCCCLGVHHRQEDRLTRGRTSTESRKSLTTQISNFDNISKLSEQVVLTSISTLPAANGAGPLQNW
In words: In vitro OX2R potency as reported in WO2016/034882.

Series [2] concerns the target T1, OX2R. Conditions: cited from earlier work.
Series [3] can be described thus: Assay C: metabolic stability in human liver microsomes (Human MST). The series is classed as in vitro ADME. Conditions: pH 7.6; pooled human liver microsomes, 1 μM compound, 37° C.; read-out: Human MST t1/2. An excerpt: Stability in human liver microsomes refers to the susceptibility of compounds to biotransformation in the context of selecting and/or designing drugs with favorable pharmacokinetic properties. The primary site of metabolism for many drugs is the liver. Human liver microsomes contain the cytochrome P450s (CYPs), and thus represent a model system for studying drug metabolization in vitro. Enhanced stability in human liver microsomes is associated with several advantages, including increased bioavailability and longer half-life, which can enable lower and less frequent dosing of patients. Thus, enhanced stability in human liver microsomes is a favorable characteristic for compounds that are to be used for drugs.
C. Assessment of Metabolic Stability in Human Liver Microsomes (Human MST)
The metabolic stability of the compounds according to the invention may be investigated as follows:
The metabolic degradation of the test compound is assayed at 37° C. with pooled human liver microsomes. The final incubation volume of 100 μL per time point contains TRIS buffer pH 7.6 at room temperature (0.1 M), MgCl2 (5 mM), microsomal protein (1 mg/mL) and the test compound at a final concentration of 1 μM. Following a short pre-incubation period at 37° C., the reactions are initiated by addition of beta-nicotinamide adenine dinucleotide phosphate, reduced form (NADPH, 1 mM), and terminated by transferring an aliquot into solvent after different time points. After centrifugation (10000 g, 5 min), an aliquot of the supernatant is assayed by LC-MS/MS for the amount of parent compound. The half-life (t1/2) is determined by the slope of the semi-logarithmic plot of the concentration-time profile.

Series [4] relates to human MDR1 P-gp. The series is described as follows: Assay D: efflux in MDCK cells transfected with the human MDR1 gene. The class given is in vitro ADME, canine. The note with it: dog; MDCK-MDR1 monolayers, pH 7.4, 37° C.; read-out: MDCK efflux ratio (BA/AB). As for the experimental part:
The MDCK assay provides information on the potential of a compound to pass the blood brain barrier. Permeability measurements across polarized, confluent MDCK-MDR1 cell monolayers grown on permeable filter supports are used as an in vitro absorption model: apparent permeability coefficients (PE) of the compounds across the MDCK-MDR1 cell monolayers are measured (pH 7.4, 37° C.) in apical-to-basal (AB) and basal-to-apical (BA) transport direction. […] Identical or similar permeabilities in both transport directions indicate passive permeation, vectorial permeability points to additional active transport mechanisms. Higher PEBA than PEAB (PEBA/PEAB>5) indicates the involvement of active efflux mediated by MDR1 P-gp, which might compromises the goal to achieve sufficient brain exposure. Therefore this assay provides valuable support for selection of compounds applicable for further in vivo testing. High permeability not limited by efflux at the blood brain barrier is a favourable characteristic for compounds that are to be used for drugs acting primarily in the CNS
D. Assessment of Efflux in Madin-Darby Canine Kidney (MDCK) Cells Transfected with the Human MDR1 Gene
Apparent permeability coefficients (PE) of the compounds across the MDCK-MDR1 cell monolayers are measured (pH 7.4, 37° C.) in apical-to-basal (AB) and basal-to-apical (BA) transport direction. […] The compounds are assigned to permeability/absorption classes by comparison of the AB permeabilities with the AB permeabilities of reference compounds with known in vitro permeability and oral absorption in the human. Identical or similar permeabilities in both transport directions indicate passive permeation, vectorial permeability points to additional active transport mechanisms. Higher PEBA than PEAB indicates the involvement of active efflux mediated by MDR1 P-gp. Active transport is concentration-dependently saturable.
MDCK-MDR1 cells (1-2×10e5 cells/1 cm2 area) are seeded on filter inserts (Costar transwell polycarbonate or PET filters, 0.4 μm pore size) and cultured (DMEM) for 7 days. Subsequently, the MDR1 expression is boosted by culturing the cells with 5 mM sodium butyrate in full medium for 2 days. Compounds are dissolved in appropriate solvent (like DMSO, 1-20 mM stock solutions). Stock solutions are diluted with HTP-4 buffer (128.13 mM NaCl, 5.36 mM KCl, 1 mM MgSO4, 1.8 mM CaCl2, 4.17 mM NaHCO3, 1.19 mM Na2HPO4×7H2O, 0.41 mM NaH2PO4×H2O, 15 mM HEPES, 20 mM glucose, 0.25% BSA, pH 7.4) to prepare the transport solutions (0.1-300 μM compound, final DMSO<=0.5%). The transport solution (TL) is applied to the apical or basolateral donor side for measuring A-B or B-A permeability (3 filter replicates), respectively. The receiver side contains the same buffer as the donor side. Samples are collected at the start and end of experiment from the donor and at various time intervals for up to 2 hours also from the receiver side for concentration measurement by HPLC-MS/MS or scintillation counting. Sampled receiver volumes are replaced with fresh receiver solution.

Series [5] addresses T2, human Orexin 1 receptor (Homo sapiens, UniProt O43613).
T2 sequence (O43613 1-425): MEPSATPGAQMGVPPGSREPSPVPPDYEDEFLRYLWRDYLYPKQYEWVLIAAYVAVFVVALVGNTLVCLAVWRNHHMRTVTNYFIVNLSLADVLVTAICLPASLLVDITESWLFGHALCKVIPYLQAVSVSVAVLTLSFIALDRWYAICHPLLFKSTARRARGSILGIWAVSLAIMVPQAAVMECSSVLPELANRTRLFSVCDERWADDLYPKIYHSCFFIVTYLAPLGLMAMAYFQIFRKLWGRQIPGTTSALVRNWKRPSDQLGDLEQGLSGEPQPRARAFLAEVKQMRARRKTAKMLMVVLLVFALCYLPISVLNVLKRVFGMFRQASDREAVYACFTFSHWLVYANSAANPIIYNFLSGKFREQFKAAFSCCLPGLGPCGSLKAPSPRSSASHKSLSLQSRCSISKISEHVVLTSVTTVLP
In words: Assay A: in vitro testing of OX1R potency, OX1R IP1. The class given is cell-based. The note with it: for Kb: 50 nM Orexin A concentration. The text has this:
Chem. Genomics 2009, 3, 22-32.
A. In Vitro Testing of OX1R Potency: OX1R IP1

The mark [6] stands for this setting: Table 3 of WO2016/034882, corresponds to pIC50.
[7] abbreviates: compared to Example 84 in WO2016/034882.

`CC[C@@H](CNc1cnc(C(F)(F)F)cn1)N(C)C(=O)c1cc(Cl)ccc1-n1nccn1` [Ex 40 in WO2016/ 034882]: the “OX2R IC50/OX1R IC50” value in series [1] (Table 1 of WO2016/034882) was “Table 1: 156”.

As a reminder, the IC50 is the point on the concentration scale where inhibition reaches its midpoint. `CC[C@@H](CNc1ncc(C(F)(F)F)cn1)N(C)C(=O)c1nc(C)ccc1-n1nccn1` [Ex 46 in WO2016/ 034882]: the concentration for half-maximal inhibition (IC50) in series [2] (Table 2 of WO2016/034882, corresponds to pIC50) was over 10 µM; in series [2] (setting [6]), at least 10 µM. Further, the “OX2R pIC50” value in series [2] (Table 2 of WO2016/034882) and in series [2] (Table 3 of WO2016/034882) was under 5.0 throughout. Further, the entries for the “OX2R IC50/OX1R IC50” value in series [1] (Table 1 of WO2016/034882), in series [1] (Table 2 of WO2016/034882) and in series [1] (Table 3 of WO2016/034882) were 390, over 312 and 3200, respectively.

Take `CC[C@@H](CNc1ncc(C(F)(F)F)cn1)N(CC)C(=O)c1nc(C)ccc1-n1nccn1` [Ex 73 in WO2016/ 034882]: the IC50 in series [2] (setting [6]) was over 1 µM. Further, the “OX2R pIC50” value in series [2] (Table 3 of WO2016/034882) was under 6.0.

`CC[C@@H](CNc1ncc(C(F)(F)F)cn1)N(C)C(=O)c1c(F)cccc1-n1nccn1` [Ex 91 in WO2016/ 034882]: in series [2] (setting [6]), the IC50 was at least 7.59 µM. In addition, the “OX2R pIC50” value in series [2] (Table 3 of WO2016/034882) is under 5.1. The half-life at 1 μM in series [3] was over 130 min.

For the molecule `C[C@@H](CNc1ncc(C(F)(F)F)cn1)N(CC1CC1)C(=O)c1cccc(F)c1-n1nccn1` [Example 1], the efflux ratio in series [4] is under 3. Also, in series [3], the half-life at 1 μM worked out at 73 min. Also, the Kb in series [5] was 0.214 nM.

For `C[C@@H](CNc1ncc(C(F)(F)F)cn1)N(CCF)C(=O)c1cccc(F)c1-n1nccn1` [Example 2], in series [4], the efflux ratio is under 3. The half-life at 1 μM in series [3] was over 130 min. In series [5], this molecule came in with a Kb of 0.67 nM.

As for `CCN(C(=O)c1cc(Cl)ccc1-n1nccn1)[C@@H](C)CNc1ncc(C(F)(F)F)cn1` [Example 3], in series [4], the efflux ratio is under 3. In series [3], the half-life at 1 μM was determined as 130 min. Moreover, the Kb in series [5] was found to be 0.032 nM.

Regarding `CCN(C(=O)c1cccc(F)c1-n1nccn1)[C@@H](C)CNc1ncc(Br)cn1` [Example 4], the efflux ratio in series [4] was under 3. The half-life at 1 μM in series [3] is over 130 min. In addition, the Kb in series [5] came out at 0.116 nM.

Take `CCN(C(=O)c1cccc(F)c1-n1nccn1)[C@@H](C)CNc1ncc(C(F)(F)F)cc1C#N` [Example 7]: the efflux ratio in series [4] is under 3. Also, the half-life at 1 μM in series [3] stood at 89 min. In series [5], this molecule yielded a Kb of 0.021 nM.

In the case of `CCN(C(=O)c1ccc(F)c(F)c1-c1ncccn1)[C@@H](C)CNc1ncc(C(F)(F)F)cn1` [Example 8], the efflux ratio in series [4] is under 3. In addition, the half-life at 1 μM in series [3] is over 130 min. The molecule further came in with a Kb in series [5] of 0.014 nM. In addition, the “higher potency (OX1R)” value in series [5] (setting [7]) is listed as “over 150 fold”.

As to `C[C@@H](CNc1ncc(C(F)(F)F)cn1)N(C)C(=O)c1cccc(F)c1-c1ncccn1` [Example 9], the efflux ratio in series [4] is under 3. For the same molecule, the half-life at 1 μM in series [3] is over 130 min. The Kb in series [5] came out at 0.223 nM. The “higher potency (OX1R)” value in series [5] (setting [7]) was about 10 fold.

Turning to `CCN(C(=O)c1cc(Cl)ccc1-n1nccn1)[C@@H](C)CNc1cnc(C(F)(F)F)cn1` [Example 10], in series [4], the efflux ratio is under 3. For the same molecule, the half-life at 1 μM in series [3] came to 130 min. The molecule further came in with a Kb in series [5] of 0.011 nM. In addition, the “better potency (OX1R)” value in series [5] (compared to Example 40 in WO2016/034882) is listed as 16 fold.

Turning to `CCN(C(=O)c1cc(F)cnc1-n1nccn1)[C@@H](C)CNc1ccc(C(F)(F)F)cn1` [Example 12], in series [4], the efflux ratio was 3 to 5.5. Further, the half-life at 1 μM in series [3] was 44 min. For the same molecule, the Kb in series [5] is 0.156 nM. Further, the “higher potency (OX1R)” value in series [5] (compared to Example 73 in WO2016/034882) is “approximately 2 fold”.

Turning to `CCN(C(=O)c1cnc(C)nc1-c1ccccc1)[C@@H](C)CNc1ncc(Br)cn1` [Example 13], in series [4], the efflux ratio is under 3. For the same molecule, the half-life at 1 μM in series [3] was determined as 76 min. The molecule further gave a Kb in series [5] of 0.089 nM.
